This test concerns the target T1, human kinase Mps-1 (Homo sapiens, UniProt P33981).
T1 construct: N-terminally GST-tagged human full length recombinant Mps-1 kinase; GST (N); purchased Invitrogen, Karslruhe, Germany PV4071
T1 sequence (P33981 1-857): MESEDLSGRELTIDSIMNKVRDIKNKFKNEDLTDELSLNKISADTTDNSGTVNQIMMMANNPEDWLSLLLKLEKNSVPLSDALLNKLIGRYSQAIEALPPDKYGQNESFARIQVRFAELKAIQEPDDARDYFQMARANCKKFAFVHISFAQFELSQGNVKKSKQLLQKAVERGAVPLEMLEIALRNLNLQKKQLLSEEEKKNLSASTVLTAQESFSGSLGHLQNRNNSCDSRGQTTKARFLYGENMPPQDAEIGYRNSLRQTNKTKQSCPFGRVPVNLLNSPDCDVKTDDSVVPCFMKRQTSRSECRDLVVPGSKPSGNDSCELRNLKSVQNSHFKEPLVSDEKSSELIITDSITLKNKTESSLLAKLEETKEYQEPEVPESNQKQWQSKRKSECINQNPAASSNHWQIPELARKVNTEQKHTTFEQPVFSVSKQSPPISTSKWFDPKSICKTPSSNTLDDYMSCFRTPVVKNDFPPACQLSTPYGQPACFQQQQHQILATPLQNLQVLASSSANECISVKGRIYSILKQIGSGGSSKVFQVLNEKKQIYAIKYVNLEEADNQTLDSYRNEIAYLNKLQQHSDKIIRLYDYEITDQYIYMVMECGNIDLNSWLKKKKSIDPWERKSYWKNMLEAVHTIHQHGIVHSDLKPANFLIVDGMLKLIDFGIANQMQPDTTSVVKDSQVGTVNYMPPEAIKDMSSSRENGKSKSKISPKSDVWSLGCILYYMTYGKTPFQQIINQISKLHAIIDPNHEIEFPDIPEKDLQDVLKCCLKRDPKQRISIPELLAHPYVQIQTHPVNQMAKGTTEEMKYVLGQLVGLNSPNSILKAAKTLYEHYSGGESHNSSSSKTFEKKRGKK
As to the kind of experiment: Mps-1 kinase assay (HTRF). In kind it is biochemical.

As a reminder, the IC50 is the concentration that gives 50% inhibition. A lower IC50 goes with greater potency.

Compound `COc1ccccc1Nc1nc2ccc(-c3ccc(NC(C)=O)cc3)cn2n1` [Example 5.3, N-(4-{2-[(2-methoxyphenyl)amino][1,2,4]triazolo[1,5-a]pyridin-6-yl}phenyl)acetamide] showed an IC50 of 76 nM.

On to `CCNC(=O)c1ccc(Nc2nc3ccc(-c4ccc(C(=O)NCC(F)(F)F)cc4)cn3n2)c(OC)c1` [Example 11.006, N-ethyl-3-methoxy-4-[(6-{4-[(2,2,2-trifluoroethyl)carbamoyl]phenyl}[1,2,4]triazolo[1,5-a]pyridin-2-yl)amino]benzamide], for which the half-maximal inhibitory concentration (IC50) was ≤ 1 nM.

`CCOC(=O)c1cc(F)cc(-c2ccc3nc(Nc4ccccc4C#N)nn3c2)c1` [Example 11.075, ethyl 3-{2-[(2-cyanophenyl)amino][1,2,4]triazolo[1,5-a]pyridin-6-yl}-5-fluorobenzoate] gave an IC50 of 1980 nM.

These data come from patent publication US20130121994A1, “TRIAZOLOPYRIDINE DERIVATIVES” (BAYER INTELLECTUAL PROPERTY GMBH, priority 2009, published 2013).
